# From article PMC2692856, “Emodin targets the β-hydroxyacyl-acyl carrier protein dehydratase from Helicobacter pylori: enzymatic inhibition assay with crystal structural and thermodynamic characterization” (BMC Microbiology, 2009)
# Columns and labels:
# [1] = tested on: H. pylori strains ATCC 43504; set-up: method as in PMID 18780820; conditions: cited from earlier work
# [2] = molecular target: T1, HpFabZ (Helicobacter pylori, UniProt Q5G940); experiment: HpFabZ enzymatic inhibition assay (spectrophotometric, substrate crotonoyl-CoA); format: biochemical
# Description: The expression, purification and enzymatic inhibition assay of HpFabZ enzyme were performed according to the previously published approach with slight modification. The compounds dissolved in 1% DMSO (Dimethyl sulfoxide) were incubated with the enzyme for 2 hours before the assay started. The IC50 value of Emodin was estimated by fitting the inhibition data to a dose-dependent curve using a logistic derivative equation. The inhibition type of Emodin against HpFabZ was determined in the presence of varied inhibitor concentrations. After 2h-incubation, the reaction was started by the addition of crotonoyl-CoA. The Ki value was obtained from Lineweaver-Burk double-reciprocal plots and subsequent secondary plots.
# The recombinant HpFabZ enzyme was prepared according to our previously published report. The spectrophotomeric enzyme inhibition assay approach was used for randomly screening HpFabZ inhibitor against our lab in-house natural product library. In addition, to optimize the screening efficiency and creditability, the pH profile of HpFabZ and the potential effects of DMSO on enzymatic activity were investigated [see Additional files 1, 2 and 3]. As shown in Additional file 2: Fig. S1, the pH optimum of HpFabZ was 8.0 and 1% DMSO for dissolving the tested compound had no obvious effect on the enzymatic activity (Additional file 3: Fig. S2.)
# [3] = molecular target: T1, HpFabZ; experiment: ITC based assay of Emodin/HpFabZ binding; conditions: 25°C
# Description: ITC experiments were performed on a VP-ITC Microcalorimeter (Microcal, Northampton, MA, USA) at 25°C. HpFabZ was dialysed extensively against 20 mM Tris (pH 8.0), 500 mM NaCl and 1 mM EDTA at 4°C. Appropriate concentration of Emodin was prepared from a 50 mM stock in DMSO, and corresponding amount of DMSO (25%) was added to the protein solution to match the buffer composition. The reference power was set to 15 μCal/sec and the cell contents were stirred continuously at 300 rpm throughout the titrations. After an initial injection of Emodin (3 μL, not used for data fitting), 29 injections (6 μL each) were performed with a 3 min-delay between each injection, and then the heat changes were monitored. Blank titrations of Emodin into buffer were also performed to correct for the heats generated by dilution and mixing. The binding isotherm was fit by the single binding site model using a non-linear least squares method based on Origin (Microcal Software, Northampton, MA, USA).
# To inspect the kinetic and thermodynamic characters regarding the inhibition of Emodin against HpFabZ enzyme, ITC technology based assay was performed. […] The ITC titration data in Table 2 has clearly established a 1:1 stoichiometry for HpFabZ-Emodin complex formation. Based on the obtained thermodynamic data (ΔH = -17.77 ± 1.11 kcal/mol, TΔS = -9.12 kcal/mol, ΔG = -8.65 kcal/mol), it was easily concluded that the enthalpy contributed favorably to the binding free energy in Emodin/HpFabZ interaction, indicating a significant enthalpy driven binding of Emodin to HpFabZ.
# [4] = molecular target: T1, HpFabZ; experiment: SPR (Biacore 3000) binding assay of Emodin to immobilized HpFabZ; conditions: 25°C
# Description: The binding of Emodin to HpFabZ was analyzed by SPR technology based Biacore 3000 instrument (Biacore AB, Uppsala, Sweden). All the experiments were carried out using HBS-EP (10 mM HEPES pH 7.4, 150 mM NaCl, 3.4 mM EDTA and 0.005% surfactant P20) as running buffer with a constant flow rate of 30 μL/min at 25°C. HpFabZ protein, which was diluted in 10 mM sodium acetate buffer (pH 4.13) to a final concentration of 1.3 μM, was covalently immobilized on the hydrophilic carboxymethylated dextran matrix of the CM5 sensor chip (BIAcore) using standard primary amine coupling procedure. Emodin was dissolved in the running buffer with different concentrations ranging from 0.625 to 20 μM. All data were analyzed by BIAevaluation software, and the sensorgrams were processed by automatic correction for nonspecific bulk refractive index effects. The kinetic analyses of the Emodin/HpFabZ binding were performed based on the 1:1 Langmuir binding fit model according to the procedures described in the software manual.
# SPR technology based Biacore 3000 instrument was used to investigate the kinetic feature of Emodin binding to HpFabZ.
# The 1:1 Langmuir binding model was used to fit the kinetic parameters regarding the Emodin/HpFabZ binding process, in which the association rate constant (ka) and dissociation rate constant (kd) were fitted simultaneously by rate Equation 1,(1) [drawing 1]
# Where, R represents the response unit, C is the concentration of the Emodin, Rmax stands for the maximal response. The equilibrium dissociation constant (KD) was determined by Equation 2.(2) [drawing 2]
# [5] = tested on: H. pylori strain ATCC 43504; experiment: Anti-H. pylori activity assay, MIC by standard agar dilution method; format: cell-based; conditions: Helicobacter pylori, ATCC43504, 72 h, 3 days, 37°C, microaerobic
# Description: (§1) The bacterial growth inhibition activity for Emodin was evaluated by using Paper Discus Method. DMSO and ampicillin paper were used as negative and positive control respectively. The minimum inhibitory concentrations (MIC) values were determined by the standard agar dilution method using Columbia agar supplemented with 10% sheep blood containing two-fold serial dilutions of Emodin. The plates were inoculated with a bacterial suspension (10^8 cfu/ml) in Brain Heart Infusion broth with a multipoint inoculator. Compound-free Columbia agar media were used as controls. Inoculated plates were incubated at 37°C under microaerobic conditions (85% N2, 10% CO2 and 5% O2) and examined after 3 days.
# (§2) The inhibition activities of Emodin against H. pylori strains SS1 and ATCC 43504 were assayed according to the standard agar dilution method.
# [6] = tested on: H. pylori strain SS1; experiment: as above; format: cell-based; conditions: Helicobacter pylori, SS1, 72 h, 3 days, 37°C, microaerobic
# Description: as §1, §2
# [7] = tested on: H. pylori strains SS1; set-up: method as in PMID 18565285; conditions: cited from earlier work
# T1 sequence (Q5G940 entry or part of it): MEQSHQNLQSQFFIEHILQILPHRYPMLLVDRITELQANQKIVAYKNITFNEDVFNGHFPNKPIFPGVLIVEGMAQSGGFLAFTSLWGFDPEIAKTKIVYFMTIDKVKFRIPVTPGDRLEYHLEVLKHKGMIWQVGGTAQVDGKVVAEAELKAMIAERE
smiles,measurement,setting,value
COc1cc(O)c2c(c1)O[C@H](c1ccc(O)cc1)CC2=O [(S)-Sakuranetin],"MIC, H. pylori strains ATCC 43504",[1],25 µg/mL
O=c1cc(-c2ccc(O)cc2)oc2cc(O)cc(O)c12 [Apigenin],"MIC, H. pylori strains ATCC 43504",[1],25 µg/mL
"Cc1cc(O)c2c(c1)C(=O)c1cc(O)cc(O)c1C2=O [Emodin, 3-methyl-1,6,8-trihydroxyanthraquinone]",IC50,"[2]; 2 h preincubation with enzyme, 1% DMSO",9.7 ± 1 µM
same,Ki,"[2]; Lineweaver-Burk and secondary plots, substrate crotonoyl-CoA, read-out: Ki, HpFabZ enzyme inhibition",1.9 ± 0.3 µM
same,Inhibition type,"[2]; versus substrate crotonoyl-CoA, double reciprocal plots",Competitive
same,TΔS,[3],-9.12 kcal/mol
same,ΔG,[3],-8.65 kcal/mol
same,ΔH,[3],-17.77 ± 1.11 kcal/mol
same,Kd,"[3]; read-out: KD', equilibrium dissociation constant determined by ITC",0.45 µM
same,"N, stoichiometry of Emodin-HpFabZ complex",[3]; single binding site model,1.07 ± 0.035
same,"Rmax, maximum analyte binding capacity",[4]; 1:1 Langmuir fit,42.3 ± 1.51 RU
same,"kd, dissociation rate constant",[4]; 1:1 Langmuir fit,0.193 ± 0.0061 per s
same,Kd,"[4]; HpFabZ immobilized on CM5 chip, read-out: KD, equilibrium dissociation constant determined by SPR",4.59 µM
same,MIC,[5],10 µg/mL
same,MIC,[6],5 µg/mL
O=C1C=CC(=O)c2c(O)cccc21 [Juglone],"MIC, H. pylori strains SS1",[7],5 µg/mL
O=c1c(O)c(-c2ccc(O)c(O)c2)oc2cc(O)cc(O)c12 [Quercetin],"MIC, H. pylori strains ATCC 43504",[1],100 µg/mL
